Experimental data: patent US9937136B2, “Methods for treating radiation induced gastrointestinal tract injury” (RDD PHARMA LTD., priority 2013, dated 2018)

Tested on: radiation induced gastrointestinal tract injury
Experiment: Radiation-induced gastrointestinal tract injury in mice, mucosal alteration histological scoring
Assay type: in vivo, male C57BL/6 mice
Settings: enemas 75 mg/kg body weight for 9 days from day of irradiation; Cs-137 12 Gy to pelvic area; versus saline enemas
Procedure: Fourteen male C57BL/6 mice were treated with enemas containing either 75 mg/kg body weight of Mesna or saline as a control for 9 days post-exposure to Cs-137 radiation (12 Gy) in the pelvic area. Radiation Injury Histological Scoring (0=no change, 3=severe change) was employed to assess treatment efficacy. The present invention is based in part on the unexpected finding that the rectal administration of Mesna to mice experiencing radiation induced gastrointestinal tract injury, reduces symptoms of the condition. In the present study, 14 male C57BL/6 mice were randomly divided into two groups—treatment group and control group. The pelvic area (containing the ano-rectal part of the intestine) of each mouse was exposed to a Cs-137 source and irradiated over 2 minutes at a rate of 6 Gy/min (a 12 Gy dose). Starting from the day of irradiation and for a period of 9 days, mice in the treatment group received enemas containing Mesna at a dose of 75 mg/kg body weight. Animals in the control group received saline enemas as a control. Animals were sacrificed nine days post irradiation and gross necropsy of the anus, rectum and colon was performed and documented by high resolution color pictures. […]

O=S(=O)([O-])CCS.[Na+] [Mesna, sodium 2-sulfanylethanesulfonate]
mucosal alteration score (0=no change, 3=severe change): significantly reduced
